Consider 13 compounds from patent publication US10765128B2, “Composition for prevention or treatment of metabolic syndrome or for antioxidation containing black bean leaf extracts and flavonol glysosides isolated therefrom as active ingredients” (KOREA RESEARCH INSTITUTE OF BIOSCIENCE AND BIOTECHNOLOGY, priority 2015, dated 2020).

Where two headings read alike, the source gives them in different places.

By IC50 is commonly meant the midpoint of a concentration-inhibition curve.

Assay [1] deals with LDL (low-density lipoprotein). Put plainly: LDL-antioxidant activity, Cu2+-induced LDL oxidation (TBARS method). It is filed as biochemical. The following applies: for LDL Oxidation Inhibitory Activity: sample concentration 100 μM; for IC50: read-out: LDL Oxidation Inhibitory Activity, IC50 value. The source says: Med. Chemn. Lett. 14: 2719-2723, 2004). Results thereof were shown in a following Table 9.

A short description of assay [2]: DPPH radical scavenging activity. The following applies: sample concentration 50 μM. The method, then: Two mL of a DPP solution was mixed in 1 mL of a test substance solution, after which a resulting mixture was stirred well. An optical density was measured at 517 nm at an interval of 1 minute for 20 minutes by using an UV/Vis spectrophotometer to evaluate the degree of DPPH radical scavenging activity.
On the technique in general: The DPPH test is a chemical assay of radical scavenging.

In a further assay the test system is MIN6 β-cells. The assay can be described thus: insulin secretion in 30 mM glucose-induced MIN6 β-cells (ELISA insulin kit). It is filed as cell-based, mouse. The note with it: for activation at 100 µM: Mus musculus, MIN6, 0.5 h, sample concentration 100 μM, read-out: Increase (%) in Insulin Secretion Amount in 30 mM Glucose-induced MIN6 Pancreatic β-Cells; for increase in amount of insulin secretion relative to its aglycone: 100 μM, Formula 4 vs quercetin, Formula 7 vs isorhamnetin. The protocol:
MIN6 β-cells, which is a mouse pancreatic. β-cell strain, was cultured in DMEM (Lonza Co.) containing 15% FBS (Gibco Co.), 100 units/ml penicillin, and 100 μg/ml streptomycin at 37° C. in a humid 5% CO2 incubator.
MIN6 cells were seeded into a 24-well plate (1×10^5 cells/well) and cultured at 37° C. in a humid 5% CO2 Incubator. In 48 hours later, the medium was first replaced with a DMEM without glucose contained therein, after which a resulting medium was left alone for 60 minutes, such that the black soybean (seoritae) leaf extract and the flavonol glycoside compounds, samples of the present invention, were treated at a certain concentration, into the DMEM with 30 mM glucose contained therein, thus being reacted for 30 minutes. A control group was one without a sample added therein under the same condition as described above, and the insulin secreted into the medium was measured by using an ELISA insulin kit (Alpco diagnostics). […]

The next assay deals with T1, human recombinant DPP-IV (Homo sapiens, UniProt P27487).
T1 construct: purchased ProSpec
The assay can be described thus: DPP-4 inhibitory activity (Ala-Pro-AFC substrate, fluorometer). The note with it: for inhibition at 200 µM: read-out: DPP-4 Inhibitory Activity (%); for DPP-4 Inhibitory Activity (%): 200 µM. It is filed as biochemical. The protocol: Particularly, the black soybean (Seoritae) leaf extract (100 μg/ml) and the flavonol glycoside compound (200 μM) were dissolved in DMSO to prepare a sample solution. Then, 10 μl of a human recombinant DPP-IV (ProSpec, the U.S.) at a concentration of 1 μg/ml, 78 μl of an incubation buffer solution (50 mM Tris, pH 7.5), and 2 μl of the sample solution prepared above were added to a 96-well microplate, after which 16 μl (a final concentration reached 40 μM) of a substrate alanine-proline-7-amino-4-trifluoromethyl-coumarin (Ala-Pro-AFC) (Enzyme System Product Co.) was added therein, and initiated the reaction. After a reaction progressed at a room temperature for 60 minutes, an amount of AFC, which was a product generated, was measured by using a fluorometer, and identified DPP4 inhibitory activities of the black soybean (Seoritae) leaf extract and the flavonol glycoside compounds by means of Equation 1. […] DPP-4Inhibitory activity (%)=100−(A/A1×100) [Equation 1]
A: AFC concentration of sample
A1: AFC concentration of a negative control group

For a further assay, the system named is RAW264.7 cells. Put plainly: ROS accumulation inhibitory activity in LPS-stimulated RAW264.7 cells (DCFH2-DA). The format is cell-based. The following applies: Mus musculus, sample concentration 100 μM, LPS 1 μg/ml. The protocol:
A test substance for each concentration was prepared with DMEM, after which the test substance was added by each 100 μL/well therein, thus being reacted for 2 hours. Then, the cells were stimulated for 18 hours with LPS (1 μg/ml) treatment, such that DCFH2-DA (2′,7′-dichlorofluorescein diacetate) was added therein at a final concentration of 15 μM, thus being reacted for 30 minutes. Once a reaction was finished, the cells were washed five times with PBS and which a fluorescence value of DCF was measured on a spectrofluorimeter (480/530, ex/em). (Hayakaya M. et. al., EMBO J., 22: 3356-3866, 2003).

Assay [3] deals with α-glucosidase (EC 3.2.1.20, Baker Yeast) (Saccharomyces cerevisiae, UniProt P53341). Put plainly: α-glucosidase inhibitory activity (nitrophenol method). It is filed as biochemical. The note with it: sample concentration 100 μM. The protocol: Specifically, the α-glucosidase inhibitory activity was performed using the nitrophenol method as described by Kato, et al., (J. Med. Chem 48: 2036-2044, 2005) with slight modification. An accumulation amount was measured by the optical density of a chromophoric group of monosaccharides such as glucose, which was generated by hydrolysis of a substrate p-nitrophenyl-[…] (Sigma-Aldrich) by means of α-glucosidase (EC 3.2.1.20, Baker Yeast).
Fifty μl of a buffer solution (70 mM calcium phosphate, pH 6.8), 50 μl of a sample extract or a compound dissolved in 50% DMSO, and 50 μl of α-glucosidase (0.1 unit/ml) were injected into a 96-well plate (NUNC™ Co.) and a substrate (5 mM, p-nitrophenyl-α-D-glucopyranoside) was finally added therein, after which a resulting plate was reacted at 37° C. for 30 minutes, such that 2 M NaOH was added therein to finish a reaction thereof. An amount of a chromophoric group generated was measured at 405 nm by using a microplate reader (ANTHOS™ Co.) to calculate an inhibitory activity.

T1 sequence (P27487 whole entry): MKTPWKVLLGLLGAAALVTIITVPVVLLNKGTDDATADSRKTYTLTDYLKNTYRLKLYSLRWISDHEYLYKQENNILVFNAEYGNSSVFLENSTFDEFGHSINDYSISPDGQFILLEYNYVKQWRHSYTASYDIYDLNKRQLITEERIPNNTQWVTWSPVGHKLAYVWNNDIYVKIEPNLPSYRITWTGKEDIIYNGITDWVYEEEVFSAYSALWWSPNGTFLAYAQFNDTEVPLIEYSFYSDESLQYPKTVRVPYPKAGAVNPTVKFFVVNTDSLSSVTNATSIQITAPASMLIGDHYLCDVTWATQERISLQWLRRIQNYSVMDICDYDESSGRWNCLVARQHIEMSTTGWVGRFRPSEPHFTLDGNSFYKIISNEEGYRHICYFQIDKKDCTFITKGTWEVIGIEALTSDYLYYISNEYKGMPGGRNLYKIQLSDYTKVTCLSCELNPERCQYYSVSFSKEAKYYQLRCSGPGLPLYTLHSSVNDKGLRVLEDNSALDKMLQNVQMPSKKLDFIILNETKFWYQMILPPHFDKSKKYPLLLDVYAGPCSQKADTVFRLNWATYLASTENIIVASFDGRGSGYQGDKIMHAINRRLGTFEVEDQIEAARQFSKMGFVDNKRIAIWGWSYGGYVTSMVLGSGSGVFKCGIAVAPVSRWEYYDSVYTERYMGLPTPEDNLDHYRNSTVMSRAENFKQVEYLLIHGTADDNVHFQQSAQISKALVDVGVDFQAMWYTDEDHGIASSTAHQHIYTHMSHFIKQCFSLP
Sequence of α-glucosidase (EC 3.2.1.20, Baker Yeast) (P53341 whole entry): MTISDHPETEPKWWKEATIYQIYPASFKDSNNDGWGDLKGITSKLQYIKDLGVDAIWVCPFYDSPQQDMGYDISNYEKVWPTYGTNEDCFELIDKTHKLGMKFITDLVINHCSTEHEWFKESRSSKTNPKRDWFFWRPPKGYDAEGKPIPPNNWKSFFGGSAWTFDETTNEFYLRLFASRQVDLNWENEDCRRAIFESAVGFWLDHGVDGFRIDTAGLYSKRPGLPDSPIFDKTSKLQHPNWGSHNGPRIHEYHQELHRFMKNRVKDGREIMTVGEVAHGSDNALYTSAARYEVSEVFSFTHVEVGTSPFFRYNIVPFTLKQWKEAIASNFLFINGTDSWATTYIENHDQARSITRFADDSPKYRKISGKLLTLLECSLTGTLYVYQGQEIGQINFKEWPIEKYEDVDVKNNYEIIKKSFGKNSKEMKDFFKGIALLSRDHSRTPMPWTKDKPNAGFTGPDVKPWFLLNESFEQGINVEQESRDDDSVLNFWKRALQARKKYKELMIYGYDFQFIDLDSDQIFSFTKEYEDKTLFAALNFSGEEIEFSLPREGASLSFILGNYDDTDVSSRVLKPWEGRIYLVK

Turning to `O=c1c(O[C@@H]2OC(CC[C@@H]3OC(O)[C@H](O)C(O)C3O)[C@H](O)C(O)C2O[C@@H]2OC(CO)[C@@H](O)C(O)C2O)c(-c2ccc(O)cc2)oc2cc(O)cc(O)c12` (some centres unmarked) [Comparative Example 2, reference compound], the “LDL Oxidation Inhibitory Activity” value in assay [1] was found to be 28.4%. Further, the “DPPH Radical Scavenging Activity” value in assay [2] was found to be 8.0 ± 0.7%.
`O=c1c(O[C@@H]2OC(CC[C@@H]3OC(O)[C@H](O)C(O)C3O)[C@H](O)C(O)C2O[C@@H]2OC(O)[C@H](O)C(O)C2O)c(-c2ccc(O)cc2)oc2cc(O)cc(O)c12` (some centres unmarked) [Comparative Example 3, reference compound]: in the assay on MIN6 β-cells, the activation at 100 µM is at most 19%. Moreover, the “DPPH Radical Scavenging Activity” value in assay [2] turned out to be 4.0 ± 0.6%.
For the compound `O=c1c(-c2ccc(O)cc2)coc2cc(O[C@@H]3O[C@H](CO)[C@@H](O)[C@H](O)[C@H]3O)cc(O)c12` [Comparative Example 4, Genistin, reference compound], the “LDL Oxidation Inhibitory Activity” value in assay [1] is given as 41.3%. In addition, in assay [2], the “DPPH Radical Scavenging Activity” value is reported as 3.4 ± 0.7%.
`C[C@@H]1O[C@@H](OC[C@H]2O[C@@H](Oc3c(-c4ccc(O)c(O)c4)oc4cc(O)cc(O)c4c3=O)[C@H](O[C@@H]3O[C@H](CO)[C@@H](O)[C@H](O)[C@H]3O)[C@@H](O)[C@H]2O)[C@H](O)[C@H](O)[C@H]1O` [Formula 1, quercetin 3-O-β-D-glucopyranosyl-(1→2)-[α-L-rhamnopyranosyl-(1→6)]-β-D-galactopyranoside]: the inhibition at 200 µM at human recombinant DPP-IV (sample concentration 200 μM) turned out to be 48.4 ± 1%. In addition, the concentration for half-maximal inhibition (IC50) in assay [1] is 1800 nM. For the same compound, the results for the inhibition at 100 µM (in the assay on RAW264.7 cells; in assay [3]) were 37.3 ± 1.8% and 10.8 ± 0.8%, respectively. In the assay with MIN6 β-cells, the activation at 100 µM was 2.1 ± 0.1%. Further, in assay [2], the “DPPH Radical Scavenging Activity” value turned out to be 60.3 ± 1.4%.
As to `C[C@@H]1O[C@@H](OC[C@H]2O[C@@H](Oc3c(-c4ccc(O)c(O)c4)oc4cc(O)cc(O)c4c3=O)[C@H](O[C@@H]3O[C@H](CO)[C@@H](O)[C@H](O)[C@H]3O)[C@@H](O)[C@@H]2O)[C@H](O)[C@H](O)[C@H]1O` [Formula 2, quercetin 3-O-β-D-glucopyranosyl-(1→2)-[α-L-rhamnopyranosyl-(1→6)]-β-D-glucopyranoside], the inhibition at 200 µM on human recombinant DPP-IV (sample concentration 200 μM) was found to be 42.2 ± 0.9%. Further, the IC50 in assay [1] was determined as 1900 nM. Moreover, the values for the inhibition at 100 µM (with RAW264.7 cells; in assay [3]) were 31.8 ± 1.7% and 8.7 ± 2%, respectively. Besides, the activation at 100 µM with MIN6 β-cells worked out at 25.3 ± 3.3%. Also, the “DPPH Radical Scavenging Activity” value in assay [2] stood at 52.0 ± 0.1%.
`O=c1c(O[C@@H]2OC(CO)[C@H](O)C(O)C2O[C@@H]2OC(CO)[C@@H](O)C(O)C2O)c(-c2ccc(O)c(O)c2)oc2cc(O)cc(O)c12` (stereo partly drawn) [Formula 3, quercetin 3-O-(2-β-D-glucopyranosyl)-β-D-galactopyranoside]: the inhibition at 200 µM at human recombinant DPP-IV (sample concentration 200 μM) turned out to be 46.7 ± 1.5%. Besides, the IC50 in assay [1] came out at 2100 nM. The figures for the inhibition at 100 µM (in the assay on RAW264.7 cells; in assay [3]) were 44.1 ± 2.8% and 63.9 ± 0.2%, respectively. The activation at 100 µM in the assay with MIN6 β-cells was found to be 37.8 ± 5.4%. In addition, the “DPPH Radical Scavenging Activity” value in assay [2] is listed as 64.8 ± 0.9%.
For the compound `O=c1c(O[C@@H]2OC(CO)[C@@H](O)C(O)C2O[C@@H]2OC(CO)[C@@H](O)C(O)C2O)c(-c2ccc(O)c(O)c2)oc2cc(O)cc(O)c12` (stereo partly drawn) [Formula 4, quercetin 3-O-(2-β-D-glucopyranosyl)-β-D-glucopyranoside], the inhibition at 200 µM at human recombinant DPP-IV (sample concentration 200 μM) was determined as 42.5 ± 1.5%. In addition, the half-maximal inhibitory concentration (IC50) in assay [1] stood at 2300 nM. Further, the inhibition at 100 µM in the assay on RAW264.7 cells stood at 26 ± 1.9%. Further, in the assay with MIN6 β-cells, the “increase in amount of insulin secretion relative to its aglycone” value was “twice” and the activation at 100 µM was found to be 63.6 ± 2.6%. Besides, the “DPPH Radical Scavenging Activity” value in assay [2] came to 59.5 ± 0.5%. The inhibition at 100 µM in assay [3] worked out at 23.4 ± 2.3%.
Take `CC1O[C@@H](OC2C(O)[C@@H](O)C(CO)O[C@H]2Oc2c(-c3ccc(O)c(O)c3)oc3cc(O)cc(O)c3c2=O)C(O)C(O)[C@H]1O` (stereo partly drawn) [Formula 5, quercetin 3-O-(2-α-D-rhamnopyranosyl)-β-D-galactopyranoside]: the inhibition at 200 µM on human recombinant DPP-IV was found to be 48.7 ± 0.4%. Moreover, in assay [1], the IC50 was 400 nM. Besides, the inhibition at 100 µM worked out at 23.7 ± 1.4% with RAW264.7 cells and 17.6 ± 2.3% in assay [3]. In addition, the activation at 100 µM in the assay with MIN6 β-cells is 24.3 ± 2.7%. Moreover, the “DPPH Radical Scavenging Activity” value in assay [2] amounted to 85.9 ± 0.4%.
Regarding `COc1cc(-c2oc3cc(O)cc(O)c3c(=O)c2O[C@@H]2OC(CO)[C@H](O)C(O)C2O[C@@H]2OC(CO)[C@@H](O)C(O)C2O)ccc1O` (stereo partly drawn) [Formula 6, isorhamnetin 3-O-(2-β-D-glucopyranosyl)-β-D-galactopyranoside], the inhibition at 200 µM at human recombinant DPP-IV (sample concentration 200 μM) is 39.4%. In addition, the “LDL Oxidation Inhibitory Activity” value in assay [1] is 65.7%. Further, the figures for the inhibition at 100 µM (in the assay with RAW264.7 cells; in assay [3]) were 58.8 ± 0.9% and 26.2 ± 1.7%, respectively. In addition, the activation at 100 µM in the assay with MIN6 β-cells was 38.5 ± 3.3%. For the same compound, the “DPPH Radical Scavenging Activity” value in assay [2] stood at 11.5 ± 0.5%.
With `COc1cc(-c2oc3cc(O)cc(O)c3c(=O)c2O[C@@H]2OC(CO)[C@H](O)C(O)C2O[C@@H]2OC(C)[C@H](O)C(O)C2O)ccc1O` (stereo partly drawn) [Formula 7, isorhamnetin 3-O-α-L-rhamnopyranosyl-(1→2)-β-D-galactopyranoside], on human recombinant DPP-IV (sample concentration 200 μM), the inhibition at 200 µM worked out at 48.1%. In addition, in assay [1], the “LDL Oxidation Inhibitory Activity” value amounted to 55.7%. In the assay with RAW264.7 cells, this compound displayed an inhibition at 100 µM of 21.9 ± 0.6%. For the same compound, in the assay on MIN6 β-cells, the “increase in amount of insulin secretion relative to its aglycone” value is “four” and the activation at 100 µM amounted to 106 ± 5.1%. For the same compound, the “DPPH Radical Scavenging Activity” value in assay [2] is on record as 7.5 ± 0.6%. Moreover, the inhibition at 100 µM in assay [3] was 22.7 ± 0.9%.
For `COc1cc(-c2oc3cc(O)cc(O)c3c(=O)c2O)ccc1O` [Isorhamnetin, reference compound], the inhibition at 200 µM at human recombinant DPP-IV (sample concentration 200 μM) is 21.6%. The activation at 100 µM in the assay with MIN6 β-cells was 26.6 ± 4.1%.
For the compound `O=c1c(O)c(-c2ccc(O)cc2)oc2cc(O)cc(O)c12` [Kaempferol, reference compound], in the assay with MIN6 β-cells, the activation at 100 µM was at most 19%.
In the case of `O=c1c(O)c(-c2ccc(O)c(O)c2)oc2cc(O)cc(O)c12` [Quercetin, reference compound], the “DPP-4 Inhibitory Activity (%)” value at human recombinant DPP-IV (sample concentration 200 μM) was 14.5 ± 1.5%; at human recombinant DPP-IV (sample concentration 200 μM, listed as quercetin), 145%. Further, the activation at 100 µM with MIN6 β-cells is 35.6 ± 3.4%.
